Source: patent US9216999B2, “Substituted pyrrolo[2,3-h][1,6]naphthyridines and compositions thereof as JAK inhibitors” (priority 2011, dated 2015)

What was measured:
Format in all cases: biochemical
Settings in all cases: ATP 100 μM
JAK3 = JAK3 (Homo sapiens (Human), UniProt P52333); experiment: Enzyme assay (Assay Example^a 1), JAK3
JAK1 = JAK1 (Homo sapiens (Human), UniProt P23458); experiment: Enzyme assay (Assay Example^a 1), JAK1
Tyk2 = Tyk2 (Homo sapiens (Human), UniProt P29597); experiment: Enzyme assay (Assay Example^a 1), Tyk2
Chain of Tyk2 (P29597 whole entry): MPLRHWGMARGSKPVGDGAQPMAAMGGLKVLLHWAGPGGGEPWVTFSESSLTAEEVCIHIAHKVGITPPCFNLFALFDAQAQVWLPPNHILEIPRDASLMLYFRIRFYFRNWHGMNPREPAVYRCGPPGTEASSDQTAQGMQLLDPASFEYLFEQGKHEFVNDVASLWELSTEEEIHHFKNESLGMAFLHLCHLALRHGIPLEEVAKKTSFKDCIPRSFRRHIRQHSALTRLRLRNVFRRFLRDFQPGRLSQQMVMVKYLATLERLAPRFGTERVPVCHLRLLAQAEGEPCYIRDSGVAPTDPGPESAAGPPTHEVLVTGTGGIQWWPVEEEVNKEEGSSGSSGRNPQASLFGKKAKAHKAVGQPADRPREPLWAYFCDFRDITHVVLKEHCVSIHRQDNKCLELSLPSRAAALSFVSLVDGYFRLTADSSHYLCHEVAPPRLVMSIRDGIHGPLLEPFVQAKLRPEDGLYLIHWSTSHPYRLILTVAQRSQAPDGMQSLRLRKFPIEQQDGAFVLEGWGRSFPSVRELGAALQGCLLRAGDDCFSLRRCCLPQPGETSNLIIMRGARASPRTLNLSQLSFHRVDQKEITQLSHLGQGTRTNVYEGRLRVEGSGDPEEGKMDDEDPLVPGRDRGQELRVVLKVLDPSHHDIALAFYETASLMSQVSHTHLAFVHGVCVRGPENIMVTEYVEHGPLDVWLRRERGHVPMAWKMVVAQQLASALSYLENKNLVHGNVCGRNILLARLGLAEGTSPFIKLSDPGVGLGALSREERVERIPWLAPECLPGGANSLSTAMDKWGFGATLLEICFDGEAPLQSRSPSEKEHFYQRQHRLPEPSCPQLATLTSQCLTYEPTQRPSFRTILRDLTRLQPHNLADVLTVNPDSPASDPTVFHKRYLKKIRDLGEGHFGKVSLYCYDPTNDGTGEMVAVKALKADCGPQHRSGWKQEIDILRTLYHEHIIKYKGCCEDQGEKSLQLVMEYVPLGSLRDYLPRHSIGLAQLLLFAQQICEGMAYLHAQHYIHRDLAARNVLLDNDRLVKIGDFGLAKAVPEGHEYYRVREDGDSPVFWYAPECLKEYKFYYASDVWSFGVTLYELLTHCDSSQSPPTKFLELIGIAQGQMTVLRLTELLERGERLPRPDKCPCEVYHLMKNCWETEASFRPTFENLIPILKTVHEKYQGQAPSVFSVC

JAK2 = JAK2 (Homo sapiens (Human), UniProt O60674); experiment: Enzyme assay (Assay Example^a 1), JAK2

Chain of JAK3 (P52333 whole entry): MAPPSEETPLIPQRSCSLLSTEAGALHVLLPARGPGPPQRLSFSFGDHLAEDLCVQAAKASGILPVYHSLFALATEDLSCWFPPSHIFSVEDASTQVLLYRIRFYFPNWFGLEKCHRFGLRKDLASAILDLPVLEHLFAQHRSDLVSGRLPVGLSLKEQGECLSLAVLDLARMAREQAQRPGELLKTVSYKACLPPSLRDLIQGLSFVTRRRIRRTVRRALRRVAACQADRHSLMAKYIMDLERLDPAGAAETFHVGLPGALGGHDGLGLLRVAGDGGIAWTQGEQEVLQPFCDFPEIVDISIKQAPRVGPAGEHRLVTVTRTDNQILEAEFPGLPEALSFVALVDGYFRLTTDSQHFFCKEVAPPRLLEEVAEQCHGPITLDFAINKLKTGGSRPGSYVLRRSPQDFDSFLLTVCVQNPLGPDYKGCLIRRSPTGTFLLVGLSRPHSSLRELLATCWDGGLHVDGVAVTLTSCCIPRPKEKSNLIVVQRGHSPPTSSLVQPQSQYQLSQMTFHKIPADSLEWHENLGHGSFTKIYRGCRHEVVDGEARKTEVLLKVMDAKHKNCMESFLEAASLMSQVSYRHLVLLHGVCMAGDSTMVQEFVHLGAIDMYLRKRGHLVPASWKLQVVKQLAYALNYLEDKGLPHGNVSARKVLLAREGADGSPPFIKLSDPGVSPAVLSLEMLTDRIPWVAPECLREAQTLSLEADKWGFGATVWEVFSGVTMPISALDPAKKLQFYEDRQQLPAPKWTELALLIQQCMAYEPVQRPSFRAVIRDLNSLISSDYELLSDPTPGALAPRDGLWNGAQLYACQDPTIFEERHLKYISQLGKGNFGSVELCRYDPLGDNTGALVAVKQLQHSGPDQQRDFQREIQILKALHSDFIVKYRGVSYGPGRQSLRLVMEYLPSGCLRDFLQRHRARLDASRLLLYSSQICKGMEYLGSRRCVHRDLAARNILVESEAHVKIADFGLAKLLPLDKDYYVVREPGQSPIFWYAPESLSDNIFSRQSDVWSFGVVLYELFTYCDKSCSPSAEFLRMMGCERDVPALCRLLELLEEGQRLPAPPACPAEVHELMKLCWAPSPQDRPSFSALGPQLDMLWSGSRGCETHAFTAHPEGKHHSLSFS

| IC50 (JAK3; Table^a 154) [µM] | IC50 (JAK1; Table^a 154) [µM] | IC50 (Tyk2; Table^a 154) [µM] | IC50 (JAK2; Table^a 154) [µM] | Compound | IC50 (JAK3) [µM] | IC50 (JAK1) [µM] | IC50 (Tyk2) [µM] | IC50 (JAK2) [µM] |
| --- | --- | --- | --- | --- | --- | --- | --- | --- |
| – | – | – | – | CC(C)(C)OC(=O)N1CC(CC#N)(NC[C@H]2CC[C@H](c3nnn4cnc5[nH]ccc5c34)CC2)C1 [compound 428, tert-Butyl 3-({[trans-4-(7H-pyrrolo[3,2-e][1,2,3]triazolo[1,5-c]pyrimidin-1-yl)cyclohexyl]methyl}amino)-3-(cyanomethyl)azetidine-1-carboxylate] | > 1 | 0.19 | > 1 | 0.75 |
| – | – | – | – | N#Cc1ccc(CCNC(=O)[C@H]2CC[C@H](c3nnn4cnc5[nH]ccc5c34)CC2)cc1 [compound 362, trans-N-(4-cyanophenethyl)-4-(7H-pyrrolo[3,2-e][1,2,3]triazolo[1,5-c]pyrimidin-1-yl)cyclohexanecarboxamide] | > 1 | 0.0074 | > 1 | 0.057 |
| – | – | – | – | N#CC[C@H]1CC[C@H](c2nnn3cnc4[nH]ccc4c23)CC1 [435b, 2-[trans-4-(7H-Pyrrolo[3,2-e][1,2,3]triazolo[1,5-c]pyrimidin-1-yl)cyclohexyl]acetonitrile] | 0.032 | 0.00011 | 0.0029 | 0.0025 |
| – | – | – | – | CN(C)S(=O)(=O)C[C@H]1CC[C@H](c2nnn3cnc4[nH]ccc4c23)CC1 [compound 418, 1-[trans-4-(7H-pyrrolo[3,2-e][1,2,3]triazolo[1,5-c]pyrimidin-1-yl)cyclohexyl]-N,N-dimethylmethanesulfonamide] | 0.33 | 0.0043 | 0.17 | 0.0084 |
| – | – | – | – | Fc1ccc([C@@H]2C[C@H]2CN[C@H]2CC[C@H](c3nnn4cnc5[nH]ccc5c34)CC2)cc1 (relative stereo) [389b, trans-N-{[trans-2-(4-fluorophenyl)cyclopropyl]methyl}-4-(7H-pyrrolo[3,2-e][1,2,3]triazolo[1,5-c]pyrimidin-1-yl)cyclohexanamine] | > 1 | 0.0079 | 0.67 | 0.14 |
| – | – | – | – | CNC[C@H]1CC[C@H](c2nnn3cnc4[nH]ccc4c23)CC1 [compound 329, 1-[trans-4-(7H-pyrrolo[3,2-e][1,2,3]triazolo[1,5-c]pyrimidin-1-yl)cyclohexyl]-N-methylmethanamine] | 0.8 | 0.0048 | 0.21 | 0.029 |
| – | – | – | – | O=C(NC[C@@H](O)c1ccccc1)[C@H]1CC[C@H](c2nnn3cnc4[nH]ccc4c23)CC1 [compound 353, trans-N-[(S)-2-hydroxy-2-phenylethyl]-4-(7H-pyrrolo[3,2-e][1,2,3]triazolo[1,5-c]pyrimidin-1-yl)cyclohexanecarboxamide] | 0.35 | 0.0029 | 0.46 | 0.031 |
| – | – | – | – | N#CCCN(CCC#N)C1CCC(c2nnn3cnc4[nH]ccc4c23)CC1 (stereo not drawn) [compound 380, 3,3′-{[4-(7H-pyrrolo[3,2-e][1,2,3]triazolo[1,5-c]pyrimidin-1-yl)cyclohexyl]azanediyl}dipropanenitrile] | 0.2 | 0.002 | 0.028 | 0.0025 |
| – | – | – | – | c1cc2c(ncn3nnc([C@H]4CC[C@H](CN5CCC5)CC4)c23)[nH]1 [compound 286, 1-[trans-4-(azetidin-1-ylmethyl)cyclohexyl]-7H-pyrrolo[3,2-e][1,2,3]triazolo[1,5-c]pyrimidine] | 0.57 | 0.0059 | 0.23 | 0.035 |
| 0.31 | 0.0034 | 0.14 | 0.011 | Fc1cnccc1CN1CCC(c2nnn3cnc4[nH]ccc4c23)CC1 [compound 161, 1-{1-[(3-fluoropyridin-4-yl)methyl]piperidin-4-yl}-7H-pyrrolo[3,2-e][1,2,3]triazolo[1,5-c]pyrimidine] | – | – | – | – |
| – | – | – | – | CC(C)(C)OC(=O)N[C@@H]1CCN(C[C@H]2CC[C@H](c3nnn4cnc5[nH]ccc5c34)CC2)C1 [compound 299, tert-butyl ((R)-1-{[trans-4-(7H-pyrrolo[3,2-e][1,2,3]triazolo[1,5-c]pyrimidin-1-yl)cyclohexyl]methyl}pyrrolidin-3-yl)carbamate] | > 1 | 0.016 | > 1 | 0.17 |
| – | – | – | – | O=C([C@H]1CC[C@H](c2nnn3cnc4[nH]ccc4c23)CC1)N1CC[C@H](O)C1 [compound 358, [trans-4-(7H-pyrrolo[3,2-e][1,2,3]triazolo[1,5-c]pyrimidin-1-yl)cyclohexyl][(S)-3-hydroxypyrrolidin-1-yl]methanone] | > 1 | 0.63 | > 1 | 0.91 |
| – | – | – | – | CN[C@H]1CC[C@H](c2nnn3cnc4[nH]ccc4c23)CC1 [398b, trans-N-methyl-4-(7H-pyrrolo[3,2-e][1,2,3]triazolo[1,5-c]pyrimidin-1-yl)cyclohexanamine] | > 1 | 0.029 | 0.75 | 0.11 |
| – | – | – | – | CC(C#N)=C1CCC(c2nnn3cnc4[nH]ccc4c23)CC1 (stereo not drawn) [compound 437, 2-[4-(7H-pyrrolo[3,2-e][1,2,3]triazolo[1,5-c]pyrimidin-1-yl)cyclohexylidene]propanenitrile] | 0.57 | 0.02 | 0.45 | 0.055 |
| – | – | – | – | c1cc2c(ncn3nnc([C@H]4CC[C@H](NC5CC5)CC4)c23)[nH]1 [392b, trans-N-cyclopropyl-4-(7H-pyrrolo[3,2-e][1,2,3]triazolo[1,5-c]pyrimidin-1-yl)cyclohexanamine] | 0.61 | 0.014 | 0.33 | 0.08 |
| 0.52 | 0.0032 | 0.65 | 0.042 | CS(=O)(=O)c1ccc(CN2CCC(c3nnn4cnc5[nH]ccc5c34)CC2)cc1 [compound 156] | – | – | – | – |
| 0.5 | 0.0084 | 0.11 | 0.046 | c1ccc(CN[C@H]2CC[C@H](c3nnn4cnc5[nH]ccc5c34)CC2)cc1 [194b, trans-N-benzyl-4-(7H-pyrrolo[3,2-e][1,2,3]triazolo[1,5-c]pyrimidin-1-yl)cyclohexanamine] | – | – | – | – |
| – | – | – | – | FC1(F)Oc2ccc(NC[C@H]3CC[C@H](c4nnn5cnc6[nH]ccc6c45)CC3)cc2O1 [compound 275, N-{[trans-4-(7H-pyrrolo[3,2-e][1,2,3]triazolo[1,5-c]pyrimidin-1-yl)cyclohexyl]methyl}-2,2-difluorobenzo[d][1,3]dioxol-5-amine] | 0.85 | 0.0067 | 0.52 | 0.065 |
| – | – | – | – | c1cn(-c2ccc(CN3CCC(c4nnn5cnc6[nH]ccc6c45)CC3)cc2)cn1 [compound 221, 1-{1-[4-(1H-imidazol-1-yl)benzyl]piperidin-4-yl}-7H-pyrrolo[3,2-e][1,2,3]triazolo[1,5-c]pyrimidine] | > 1 | 0.018 | > 1 | 0.09 |

| Compound | IC50 (JAK3; Table^a 154) [µM] | IC50 (JAK1; Table^a 154) [µM] | IC50 (Tyk2; Table^a 154) [µM] | IC50 (JAK2; Table^a 154) [µM] | IC50 (JAK3) [µM] | IC50 (JAK1) [µM] | IC50 (Tyk2) [µM] | IC50 (JAK2) [µM] |
| --- | --- | --- | --- | --- | --- | --- | --- | --- |
| FC(F)(F)c1ccc(CCN2CCC(c3nnn4cnc5[nH]ccc5c34)CC2)cc1 [compound 42] | > 1 | 0.082 | > 1 | 0.41 | – | – | – | – |
| Clc1ccc(NC[C@H]2CC[C@H](c3nnn4cnc5[nH]ccc5c34)CC2)cc1 [compound 176, N-{[trans-4-(7H-pyrrolo[3,2-e][1,2,3]triazolo[1,5-c]pyrimidin-1-yl)cyclohexyl]methyl}-4-chloroaniline] | > 1 | 0.034 | > 1 | 0.19 | – | – | – | – |
